Publication PMC3344384 (Chemistry & biology, 2011)
Entries after “also recorded” stand apart in the source; their conditions may differ.

Key:
[1] = target: T1, USP1/UAF1 (Homo sapiens, UniProt O94782); experiment: gel-based K63-linked diubiquitin cleavage assay, USP1/UAF1; assay type: biochemical; settings: IC50 USP1/UAF1, K63-linked diubiquitin substrate; NI = no significant inhibition at highest inhibitor concentration of 114 μM
[2] = target: USP46/UAF1 (Homo sapiens, UniProt P62068); experiment: K63-linked diubiquitin cleavage assay, USP46/UAF1; assay type: biochemical; settings: for IC50 USP46/UAF1: K63-linked diubiquitin substrate, NI = no significant inhibition at 114 μM
[3] = target: T2, SENP1 (Homo sapiens, UniProt Q9P0U3); experiment: SUMO1-AMC assay, SENP1; assay type: biochemical; settings: SUMO1-AMC substrate
T2 sequence (Q9P0U3 1-644): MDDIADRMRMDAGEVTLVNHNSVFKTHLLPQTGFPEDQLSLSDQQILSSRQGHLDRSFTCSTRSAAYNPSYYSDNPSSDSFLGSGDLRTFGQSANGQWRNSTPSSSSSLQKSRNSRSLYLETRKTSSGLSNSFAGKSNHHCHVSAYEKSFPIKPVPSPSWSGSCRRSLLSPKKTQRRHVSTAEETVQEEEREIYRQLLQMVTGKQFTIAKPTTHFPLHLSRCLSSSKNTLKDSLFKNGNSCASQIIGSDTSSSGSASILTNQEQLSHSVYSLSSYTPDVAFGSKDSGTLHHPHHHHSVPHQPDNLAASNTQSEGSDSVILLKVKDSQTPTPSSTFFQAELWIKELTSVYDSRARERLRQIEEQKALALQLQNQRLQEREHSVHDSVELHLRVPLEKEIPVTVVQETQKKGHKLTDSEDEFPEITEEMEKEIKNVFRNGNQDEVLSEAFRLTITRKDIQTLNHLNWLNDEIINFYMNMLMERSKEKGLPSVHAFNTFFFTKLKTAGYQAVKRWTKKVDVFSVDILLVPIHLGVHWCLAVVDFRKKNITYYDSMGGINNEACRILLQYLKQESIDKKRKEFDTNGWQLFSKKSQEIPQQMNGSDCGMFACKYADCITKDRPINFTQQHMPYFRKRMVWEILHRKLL

[4] = test system: Ub-PCNA in HEK293T cells; experiment: Western blot of Ub-PCNA level in cells; assay type: cell-based, human
[5] = target: USP1/UAF1 complex (Homo sapiens, UniProt O94782+Q8TAF3); experiment: native gel electrophoresis of USP1/UAF1 complex; settings: incubation with inhibitor up to 10 × IC50
[6] = in vitro; settings: human
[7] = test system: Ub-FANCD2 in HEK293T cells; experiment: Western blot of Ub-FANCD2 level in cells; assay type: cell-based, human
[8] = test system: Ub-H2A in HEK293T cells; experiment: histone H2A monoubiquitination in cells; assay type: cell-based, human; settings: in the presence or absence of cisplatin
[9] = target: T1, USP1/UAF1; experiment: steady-state kinetics; assay type: biochemical
[10] = target: USP1/UAF1 (Homo sapiens, UniProt O94782+Q8TAF3); experiment: steady-state kinetics; assay type: biochemical; settings: Lineweaver-Burk plots, K63-linked di-Ub substrate
Chain of USP1/UAF1 (Homo sapiens, UniProt O94782+Q8TAF3) (O94782 whole entry): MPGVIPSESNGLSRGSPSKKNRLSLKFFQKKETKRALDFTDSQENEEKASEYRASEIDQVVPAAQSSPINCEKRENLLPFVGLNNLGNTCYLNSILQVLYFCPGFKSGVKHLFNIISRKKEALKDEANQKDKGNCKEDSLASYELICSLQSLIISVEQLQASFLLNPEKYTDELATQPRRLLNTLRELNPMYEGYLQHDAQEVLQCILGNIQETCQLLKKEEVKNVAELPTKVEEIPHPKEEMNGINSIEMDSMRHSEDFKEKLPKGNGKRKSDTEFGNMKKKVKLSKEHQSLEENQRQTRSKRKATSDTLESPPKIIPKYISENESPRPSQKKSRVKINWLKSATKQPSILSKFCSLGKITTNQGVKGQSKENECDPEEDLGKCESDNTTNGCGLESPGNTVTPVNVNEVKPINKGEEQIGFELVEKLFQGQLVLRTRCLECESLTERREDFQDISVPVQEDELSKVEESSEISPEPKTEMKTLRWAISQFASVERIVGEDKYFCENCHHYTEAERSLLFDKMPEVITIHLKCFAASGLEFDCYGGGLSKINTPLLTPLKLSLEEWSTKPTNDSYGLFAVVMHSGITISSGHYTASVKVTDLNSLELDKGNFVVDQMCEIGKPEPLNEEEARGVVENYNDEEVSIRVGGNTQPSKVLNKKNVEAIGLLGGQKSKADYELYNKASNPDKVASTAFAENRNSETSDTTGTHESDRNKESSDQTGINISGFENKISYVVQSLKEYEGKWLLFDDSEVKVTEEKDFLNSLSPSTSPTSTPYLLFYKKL
Chain of USP1/UAF1 (Homo sapiens, UniProt O94782+Q8TAF3) (Q8TAF3 whole entry): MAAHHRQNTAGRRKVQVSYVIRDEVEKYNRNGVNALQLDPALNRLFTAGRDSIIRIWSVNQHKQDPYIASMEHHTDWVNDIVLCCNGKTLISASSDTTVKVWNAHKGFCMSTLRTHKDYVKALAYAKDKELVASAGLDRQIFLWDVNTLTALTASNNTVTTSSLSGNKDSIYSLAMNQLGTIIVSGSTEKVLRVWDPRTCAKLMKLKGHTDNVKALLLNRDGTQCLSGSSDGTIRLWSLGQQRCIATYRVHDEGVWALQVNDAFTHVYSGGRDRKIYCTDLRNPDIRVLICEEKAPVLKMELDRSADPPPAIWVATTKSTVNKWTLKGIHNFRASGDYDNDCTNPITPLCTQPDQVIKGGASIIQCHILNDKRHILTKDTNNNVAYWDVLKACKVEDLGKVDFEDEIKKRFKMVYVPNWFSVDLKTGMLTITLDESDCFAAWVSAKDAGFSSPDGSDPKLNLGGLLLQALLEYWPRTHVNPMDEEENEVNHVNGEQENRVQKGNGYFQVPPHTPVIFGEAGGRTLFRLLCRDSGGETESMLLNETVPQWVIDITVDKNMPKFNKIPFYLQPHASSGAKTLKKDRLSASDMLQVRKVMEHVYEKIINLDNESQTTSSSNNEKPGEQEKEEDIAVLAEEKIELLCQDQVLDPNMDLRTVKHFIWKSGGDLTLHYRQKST

Chain of USP46/UAF1 (P62068 whole entry): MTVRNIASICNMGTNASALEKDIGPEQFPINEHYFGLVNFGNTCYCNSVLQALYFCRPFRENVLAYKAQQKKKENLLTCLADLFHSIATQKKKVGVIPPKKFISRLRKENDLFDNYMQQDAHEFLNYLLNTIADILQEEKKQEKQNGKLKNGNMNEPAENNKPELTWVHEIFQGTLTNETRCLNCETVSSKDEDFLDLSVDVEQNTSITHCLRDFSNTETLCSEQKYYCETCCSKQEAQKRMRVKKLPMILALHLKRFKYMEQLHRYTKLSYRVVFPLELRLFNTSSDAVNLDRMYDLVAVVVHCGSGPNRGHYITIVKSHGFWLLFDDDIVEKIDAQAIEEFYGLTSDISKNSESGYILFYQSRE
Chain of USP46/UAF1 (Q8TAF3 whole entry partner): as the sequence (Q8TAF3 whole entry) above
T1 sequence (O94782 whole entry): as the sequence (O94782 whole entry) above
T1 sequence (Q8TAF3 whole entry, further chain): as the sequence (Q8TAF3 whole entry) above
Chain of USP1/UAF1 complex (O94782 whole entry): as the sequence (O94782 whole entry) above
Chain of USP1/UAF1 complex (Q8TAF3 whole entry): as the sequence (Q8TAF3 whole entry) above

Row | Compound | IC50 [1] [µM] | IC50 USP46/UAF1 [2] | inhibition of SENP1 [3] | monoubiquitination of PCNA, single agent [4] | dissociation of the USP1/UAF1 complex [5] | EC50 at 48 h [6] [µM] | Ub-FANCD2 level, single agent [7] | effect on level of Ub-H2A [8] | Ki [9] [µM] | inhibition mechanism [10] | IC50 [2] [µM]
1 | OCCN1CCN(CCC=C2c3ccccc3Sc3ccc(C(F)(F)F)cc32)CC1 [Flupenthixol, flupenthixol] | 7 ± 1 | did not inhibit | low level of inhibition | – | – | – | – | – | – | – | –
2 | O=c1[nH]c2ccccc2n1C1CCN(CCCC(c2ccc(F)cc2)c2ccc(F)cc2)CC1 [Pimozide, pimozide] | – | did not inhibit | low level of inhibition | significant increase | no dissociation | 21 | increase in Ub-FANCD2 level | no effect | 0.5 | noncompetitively; also recorded: noncompetitive inhibition mechanism | –
3 | CC(C)(Sc1ccc(CCN(CCCCC2CCCCC2)C(=O)NC2CCCCC2)cc1)C(=O)O [GW7647] | – | – | low level of inhibition | significant increase | no dissociation | 26 | increase in Ub-FANCD2 level | no effect | 0.7 | noncompetitively; also recorded: noncompetitive inhibition mechanism | 12 ± 1
4 | CN1CCN(CCCN2c3ccccc3Sc3ccc(C(F)(F)F)cc32)CC1 [Trifluoperazine, trifluoperazine] | ≤ 8 | did not inhibit | low level of inhibition | – | – | – | – | – | – | – | –
